Test results as given in US6737383B1, “Herbicidal oxadiazolidines” (priority 1999, dated 2004).

Tests used:
[1] = test system: Green foxtail; experiment: Test D green foxtail; assay type: in vivo
Outline: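 Seeds were sown in greenhouse pots, one species per pot or compartment. Compounds were in a non-phytotoxic solvent mixture with surfactant; preemergence applications went on the sandy loam surface within one day of planting. Injury was rated visually after 14 to 21 days, 0 (none) to 100 (complete control).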

[2] = test system: field violet; experiment: Test E field violet; assay type: in vivo, Viola arvensis; conditions: Preemergence
[3] = test system: Russian thistle; experiment: Test E Russian thistle; assay type: in vivo, Salsola kali; conditions: Preemergence
[4] = test system: wild buckwheat; experiment: Test E wild buckwheat; assay type: in vivo, Polygonum convolvulus; conditions: Preemergence
[5] = test system: deadnettle; experiment: Test E deadnettle; assay type: in vivo, Lamium amplexicaule; conditions: Postemergence
Experimental: (§1) Compounds evaluated in this test were formulated in a non-phytotoxic solvent mixture which included a surfactant and applied to plants that were in the 1- to 4-leaf stage (postemergence application). A mixture of sandy loam soil and greenhouse potting mix in a 60:40 ratio was used for the postemergence test.
(§2) Plantings of these crops and weed species were adjusted to produce plants of appropriate size for the postemergence test. All plant species were grown using normal greenhouse practices. Crop and weed species include annual bluegrass (Poa annua), blackgrass (Alopecurus myosuroides), black nightshade (Solanum nigra), chickweed (Stellaria media), common poppy (Papaver rhoeas), deadnettle (Lamium amplexicaule), downy brome (Bromus tectorum), field violet (Viola arvensis), galium (Galium aparine), green foxtail (Setaria viridis), Italian ryegrass (Lolium multiflorum), jointed goatgrass (Aegilops cylindrica), kochia (Kochia scoparia), lambsquarters (Chenopodium album), littleseed canarygrass (Phalaris minor), rape (Brassica napus), redroot pigweed (Amaranthus retroflexus), Russian thistle (Salsola kali), scentless chamomile (Matricaria inodora), spring barley (Hordeum vulgare), sugar beet (Beta vulgaris), sunflower (Helianthus annuus), ivyleaf speedwell (Veronica hederaefolia), spring wheat (Triticum aestivum), winter wheat (Triticum aestivum), wild buckwheat (Polygonum convolvulus), wild mustard (Sinapis arvensis), wild oat (Avena fatua), windgrass (Apera spica-venti) and winter barley (Hordeum vulgare).
(§3) Treated plants and untreated controls were maintained in a greenhouse for approximately 21 to 28 days, after which all treated plants were compared to untreated controls and visually evaluated. […] A dash response (-) means no test result.

[6] = test system: redroot pigweed; experiment: Test C postemergence redroot pigweed; assay type: in vivo, Amaranthus retroflexus; conditions: 0 to 100 scale, 0 no effect, 100 complete control
Experimental: as §1, with “grown for various periods of time before treatment” for “in the 1- to 4-leaf stage”
(§4) Plantings of these crops and weed species were adjusted to produce plants of appropriate size for the postemergence test. All plant species were grown using normal greenhouse practices. Crop and weed species include arrowleaf sida (Sida rhombifolia), barnyardgrass (Echinochloa crus-galli), cocklebur (Xanthium strumarium), common ragweed (Ambrosia elatior), corn (Zea mays), cotton (Gossypium hirsutum), eastern black nightshade (Solanum ptycanthum), fall panicum (Panicum dichotomiflorum), field bindweed (Convolvulus arvensis), giant foxtail (Setaria faberii), hairy beggarticks (Bidens pilosa), ivyleaf morningglory (Ipomoea hederacea), johnsongrass (Sorghum halepense), ladysthumb smartweed (Polygonum persicaria), lambsquarters (Chenopodium album), large crabgrass (Digitaria sanguinalis), purple nutsedge (Cyperus rotundus), redroot pigweed (Amaranthus retroflexus), soybean (Glycine max), surinam grass (Brachiaria decumbens), velvetleaf (Abutilon theophrasti) and wild poinsettia (Euphorbia heterophylla).
(§5) Treated plants and untreated controls were maintained in a greenhouse for approximately 14, to 21 days, after which all treated plants were compared to untreated controls and visually evaluated. Plant response ratings, summarized in Table C, were based upon a 0 to 100 scale where 0 was no effect and 100 was complete control. A dash response (−) means no test result.

[7] = test system: wild oat; experiment: Test E wild oat; assay type: in vivo, Avena fatua; conditions: Postemergence
Experimental: as §1, §2, §3

[8] = test system: wild mustard; experiment: Test E wild mustard; assay type: in vivo, Sinapis arvensis; conditions: Preemergence
[9] = test system: spring barley; experiment: Test E spring barley; assay type: in vivo, Hordeum vulgare; conditions: Postemergence
Experimental: as §1, §2, §3

[10] = test system: giant foxtail; experiment: Test C postemergence giant foxtail; assay type: in vivo, Setaria faberii; conditions: 0 to 100 scale, 0 no effect, 100 complete control
Experimental: as §1, with “grown for various periods of time before treatment” for “in the 1- to 4-leaf stage”
as §4, §5

[11] = test system: downy brome; experiment: Test E downy brome; assay type: in vivo, Bromus tectorum; conditions: Preemergence
[12] = test system: littleseed canarygrass; experiment: Test E littleseed canarygrass; assay type: in vivo, Phalaris minor; conditions: Preemergence
[13] = test system: barnyardgrass; experiment: Test A barnyardgrass; assay type: in vivo, Echinochloa crus-galli; conditions: 0 to 10 scale where 0 is no effect and 10 is complete control
Experimental: Seeds of barnyardgrass (Echinochloa crus-galli), crabgrass (Digitaria spp.), morningglory (Ipomoea spp.), and velvetleaf (Abutilon theophrasti) were planted into a sandy loam soil and treated preemergence by soil drench with test chemicals formulated in a non-phytotoxic solvent mixture which includes a surfactant At the same time, these crop and weed species were also treated postemergence sprayed to runoff, with test chemicals formulated in the same manner.
Plants ranged in height from two to eighteen cm and were in the one to two leaf stage for the postemergence treatment. Treated plants and untreated controls were maintained in a greenhouse for approximately eleven days, after which all treated plants were compared to untreated controls and visually evaluated for injury. Plant response ratings, summarized in Table A, are based on a 0 to 10 scale where 0 is no effect and 10 is complete control.

[14] = Rate 64 g/ha, Preemergence; 0 to 100 scale, 0 no injury, 100 complete control
[15] = Rate 125 g/ha, Preemergence; 0 to 100 scale, 0 no injury, 100 complete control
[16] = Rate 62 g/ha, 0 to 100 scale, 0 no effect, 100 complete control
[17] = Rate 125 g/ha, 0 to 100 scale (0 no effect, 100 complete control)
[18] = Rate 250 g/ha, 0 to 100 scale (0 no effect, 100 complete control)
[19] = Rate 500 g/ha, 0 to 100 scale where 0 is no effect and 100 is complete control
[20] = Rate 500 g/ha, 0 to 100 scale, 0 no effect, 100 complete control

SMILES: CCn1c(=O)on(C(=O)N(c2ccc(F)cc2)C(C)C)c1=O [Compound 107]
- Plant response rating, Green foxtail ([1]; Preemergence; Rate 16 g/ha; 0 to 100 scale, 0 no injury, 100 complete control): 100
- Plant response rating, Green foxtail ([1]; Preemergence; Rate 32 g/ha; 0 to 100 scale, 0 no injury, 100 complete control): 100
- Plant response rating, Green foxtail ([1]; Rate 16 g/ha; Preemergence; 0 to 100 scale, 0 no injury, 100 complete control): 100
- Plant response rating, Green foxtail ([1]; Rate 32 g/ha; Preemergence; 0 to 100 scale, 0 no injury, 100 complete control): 100
- Green foxtail plant response rating [1, 14]: 100
- Plant response rating, Green foxtail [1, 14]: 100
- Green foxtail plant response rating [1, 15]: 100
- Plant response rating, Green foxtail [1, 15]: 100
- Plant response rating, Green foxtail ([1]; Rate 250 g/ha; Preemergence; 0 to 100 scale): 100
- Plant response rating, Green foxtail ([1]; Rate 500 g/ha, Preemergence; 0 to 100 scale): 100
- Plant response rating, Field violet [2, 16]: 70
- Plant response rating, Field violet [2, 17]: 30
- Plant response rating, Field violet ([2]; Rate 250 g/ha, 0 to 100 scale): 20
- Plant response rating, Russian thistle [3, 16]: 0
- Plant response rating, Russian thistle [3, 17]: 0
- Plant response rating, Russian thistle ([3]; Rate 250 g/ha, 0 to 100 scale): 10
- Plant response rating, Wild buckwheat [4, 16]: 60
- Plant response rating, Wild buckwheat [4, 17]: 90
- Plant response rating, Wild buckwheat ([4]; Rate 250 g/ha, 0 to 100 scale): 95
- Plant response rating, Deadnettle ([5]; Rate 62 g/ha, 0 to 100 scale): 0
- Plant response rating, Deadnettle ([5]; Rate 125 g/ha, 0 to 100 scale): 5
- Plant response rating, Deadnettle [5, 18]: 50
- Plant response rating, Redroot pigweed ([6]; Rate 280 g/ha): 75
- Plant response rating, Redroot pigweed ([6]; Rate 560 g/ha): 80
- Plant response rating, Redroot pigweed ([6]; Rate 1120 g/ha): 80
- Plant response rating, Wild oat ([7]; Rate 62 g/ha, 0 to 100 scale): 5
- Plant response rating, Wild oat ([7]; Rate 125 g/ha, 0 to 100 scale): 5
- Plant response rating, Wild oat [7, 18]: 0
- Plant response rating, Wild mustard [8, 16]: 100
- Plant response rating, Wild mustard [8, 17]: 85
- Plant response rating, Wild mustard ([8]; Rate 250 g/ha, 0 to 100 scale): 100
- Plant response rating, Spring Barley ([9]; Rate 62 g/ha, 0 to 100 scale): 20
- Plant response rating, Spring Barley ([9]; Rate 125 g/ha, 0 to 100 scale): 0
- Plant response rating, Spring Barley [9, 18]: 30
- Plant response rating, Giant foxtail ([10]; Rate 280 g/ha): 70
- Plant response rating, Giant foxtail ([10]; Rate 560 g/ha): 95
- Plant response rating, Giant foxtail ([10]; Rate 1120 g/ha): 95
- Plant response rating, Downy brome [11, 16]: 50
- Plant response rating, Downy brome [11, 17]: 60
- Plant response rating, Downy brome ([11]; Rate 250 g/ha, 0 to 100 scale): 75
- Plant response rating, LS canarygrass [12, 16]: 50
- Plant response rating, LS canarygrass [12, 17]: 80
- Plant response rating, LS canarygrass ([12]; Rate 250 g/ha, 0 to 100 scale): 80

SMILES: CCn1c(=O)on(C(=O)N(c2ccc(F)cc2F)C(C)C)c1=O [Compound 116]
- Plant response rating, Field violet [2, 17]: 50
- Plant response rating, Field violet ([2]; Rate 250 g/ha, 0 to 100 scale): 40
- Plant response rating, Field violet [2, 19]: 90
- Plant response rating, Russian thistle [3, 17]: 0
- Plant response rating, Russian thistle ([3]; Rate 250 g/ha, 0 to 100 scale): 0
- Plant response rating, Russian thistle [3, 19]: 50
- Plant response rating, Wild buckwheat [4, 17]: 40
- Plant response rating, Wild buckwheat ([4]; Rate 250 g/ha, 0 to 100 scale): 60
- Plant response rating, Wild buckwheat [4, 19]: 95
- Plant response rating, Deadnettle ([5]; Rate 62 g/ha, 0 to 100 scale): 0
- Plant response rating, Deadnettle ([5]; Rate 125 g/ha, 0 to 100 scale): 0
- Plant response rating, Deadnettle [5, 18]: 20
- Plant response rating, Deadnettle [5, 20]: 50
- Plant response rating, Redroot pigweed ([6]; Rate 140 g/ha): 0
- Plant response rating, Redroot pigweed ([6]; Rate 280 g/ha): 0
- Plant response rating, Redroot pigweed ([6]; Rate 560 g/ha): 0
- Plant response rating, Redroot pigweed ([6]; Rate 1120 g/ha): 20
- Plant response rating, Wild oat ([7]; Rate 62 g/ha, 0 to 100 scale): 20
- Plant response rating, Wild oat ([7]; Rate 125 g/ha, 0 to 100 scale): 0
- Plant response rating, Wild oat [7, 18]: 30
- Plant response rating, Wild oat [7, 20]: 70
- Plant response rating, Wild mustard [8, 17]: 75
- Plant response rating, Wild mustard ([8]; Rate 250 g/ha, 0 to 100 scale): 85
- Plant response rating, Wild mustard [8, 19]: 65
- Plant response rating, Spring Barley ([9]; Rate 62 g/ha, 0 to 100 scale): 5
- Plant response rating, Spring Barley ([9]; Rate 125 g/ha, 0 to 100 scale): 0
- Plant response rating, Spring Barley [9, 18]: 10
- Plant response rating, Spring Barley [9, 20]: 0
- Plant response rating, Giant foxtail ([10]; Rate 280 g/ha): 60
- Plant response rating, Giant foxtail ([10]; Rate 560 g/ha): 60
- Plant response rating, Giant foxtail ([10]; Rate 1120 g/ha): 85
- Plant response rating, Downy brome [11, 17]: 60
- Plant response rating, Downy brome ([11]; Rate 250 g/ha, 0 to 100 scale): 50
- Plant response rating, Downy brome [11, 19]: 70
- Plant response rating, LS canarygrass [12, 17]: 70
- Plant response rating, LS canarygrass ([12]; Rate 250 g/ha, 0 to 100 scale): 80
- Plant response rating, LS canarygrass [12, 19]: 100

SMILES: CCOC(=O)Cn1c(=O)on(C(=O)N(c2ccc(F)cc2)C(C)C)c1=O [Compound 128]
- Plant response rating, Barnyardgrass ([13]; Postemergence, Rate 1000 g/ha): 0
- Plant response rating, Barnyardgrass ([13]; Pre-emergence, Rate 2000 g/ha): 0

SMILES: Cc1ccccc1Cn1c(=O)on(C(=O)N(c2ccc(Cl)cc2)C(C)C)c1=O [Compound 136]
- Plant response rating, Barnyardgrass ([13]; Postemergence, Rate 1000 g/ha): 4
- Plant response rating, Barnyardgrass ([13]; Pre-emergence, Rate 2000 g/ha): 9

SMILES: C=C(C)Cn1c(=O)on(C(=O)N(c2ccc(F)cc2)C(C)C)c1=O [Compound 139]
- Green foxtail plant response rating [1, 14]: 98
- Plant response rating, Green foxtail [1, 14]: 98
